Source: ChEMBL document CHEMBL3112556, “Novel GlyT1 inhibitor chemotypes by scaffold hopping. Part 2: development of a [3.3.0]-based series and other piperidine bioisosteres” (Bioorg Med Chem Lett, 2014)
Blank lines part the entries; values can stand above or below the compound they belong to. Activity calls are given as the source filed them. No cut-off for these calls is given here.

What was measured:
[1] = target: T1, Sodium- and chloride-dependent glycine transporter 2 (Homo sapiens, UniProt Q9Y345); assay: Inhibition of GlyT2 (unknown origin) assessed as [14C]-glycine transport
T1 sequence (Q9Y345 whole entry): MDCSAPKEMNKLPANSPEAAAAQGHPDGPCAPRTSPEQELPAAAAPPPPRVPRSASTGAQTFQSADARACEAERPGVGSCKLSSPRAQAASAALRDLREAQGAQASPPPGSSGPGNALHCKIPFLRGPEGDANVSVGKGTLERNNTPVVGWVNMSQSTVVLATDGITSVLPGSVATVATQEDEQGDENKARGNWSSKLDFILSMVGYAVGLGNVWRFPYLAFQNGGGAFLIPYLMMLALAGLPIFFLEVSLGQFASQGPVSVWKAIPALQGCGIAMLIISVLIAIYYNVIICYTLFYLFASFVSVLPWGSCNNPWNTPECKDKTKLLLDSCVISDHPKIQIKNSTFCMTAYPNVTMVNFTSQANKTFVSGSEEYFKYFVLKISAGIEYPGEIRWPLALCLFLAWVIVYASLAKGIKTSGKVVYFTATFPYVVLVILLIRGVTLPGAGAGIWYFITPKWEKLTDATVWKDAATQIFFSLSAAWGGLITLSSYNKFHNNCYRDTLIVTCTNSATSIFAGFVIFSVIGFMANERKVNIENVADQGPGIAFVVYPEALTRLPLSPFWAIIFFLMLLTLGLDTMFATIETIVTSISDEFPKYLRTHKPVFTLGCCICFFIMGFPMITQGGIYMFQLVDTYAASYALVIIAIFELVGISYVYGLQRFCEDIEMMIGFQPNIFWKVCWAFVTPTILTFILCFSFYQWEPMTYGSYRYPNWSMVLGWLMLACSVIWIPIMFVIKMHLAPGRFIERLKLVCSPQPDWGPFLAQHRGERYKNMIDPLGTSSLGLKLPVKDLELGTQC

[2] = Fraction unbound in rat; format: ADME; settings: in vitro
[3] = Metabolic stability in rat liver microsomes assessed as compound remaining after 90 mins; format: ADME; settings: read-out: Stability
[4] = target: T2, Sodium- and chloride-dependent glycine transporter 1 (Homo sapiens) (UniProt P48067); assay: Competitive inhibition of GlyT1 (unknown origin) assessed as [14C]-glycine transport by Eadie-Hoffstee plot analysis
T2 sequence (whole entry): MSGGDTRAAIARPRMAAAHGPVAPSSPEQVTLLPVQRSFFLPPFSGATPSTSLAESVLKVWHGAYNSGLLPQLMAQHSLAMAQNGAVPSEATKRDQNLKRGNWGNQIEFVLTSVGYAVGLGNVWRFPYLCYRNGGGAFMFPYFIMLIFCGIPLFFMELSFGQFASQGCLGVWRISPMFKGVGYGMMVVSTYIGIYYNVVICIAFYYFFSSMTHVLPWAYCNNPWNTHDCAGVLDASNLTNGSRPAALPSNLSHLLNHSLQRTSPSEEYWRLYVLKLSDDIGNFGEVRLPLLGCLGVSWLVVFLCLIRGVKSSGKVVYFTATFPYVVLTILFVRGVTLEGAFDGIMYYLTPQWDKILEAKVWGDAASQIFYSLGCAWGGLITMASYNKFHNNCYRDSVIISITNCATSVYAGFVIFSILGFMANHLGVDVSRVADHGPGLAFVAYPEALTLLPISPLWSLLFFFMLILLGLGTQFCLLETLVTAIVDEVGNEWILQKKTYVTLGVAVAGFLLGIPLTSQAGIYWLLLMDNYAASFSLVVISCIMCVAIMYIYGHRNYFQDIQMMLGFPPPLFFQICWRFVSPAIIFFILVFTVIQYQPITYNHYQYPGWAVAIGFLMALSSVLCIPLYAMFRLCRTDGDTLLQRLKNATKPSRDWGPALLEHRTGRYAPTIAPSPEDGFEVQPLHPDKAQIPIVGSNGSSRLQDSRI

[5] = Inhibition of CYP450 (unknown origin); format: ADME, Homo sapiens
[6] = target: T3, Sodium- and chloride-dependent glycine transporter 1 (Homo sapiens, UniProt P48067); assay: Inhibition of GlyT1 (unknown origin) assessed as [14C]-glycine transport
T3 sequence (P48067 whole entry): T2 sequence (whole entry)

SMILES: Cn1cnc(S(=O)(=O)N2CC(C(NC(=O)c3ccc(Cl)cc3Cl)c3ccccn3)C2)c1 (racemic)
- Fu [2]: 14%
- remaining at 1.5 h [3]: 75%
- competitive inhibition (active/inactive) [4]: Active
- IC50 [5]: > 10 µM

SMILES: Cn1cc(S(=O)(=O)N2CC3CCC(NC(=O)c4ccc(Cl)cc4Cl)C3C2)nn1 (racemic)
- IC50 [1]: > 30 µM
- IC50 [6]: 0.015 µM

SMILES: Cn1cnc(S(=O)(=O)N2CC3CCC(NC(=O)c4ccccc4C(F)(F)F)C3C2)c1 (racemic)
- IC50 [1]: > 30 µM
- IC50 [6]: 0.112 µM
- competitive inhibition (active/inactive) [4]: Active

SMILES: Cn1cnc(S(=O)(=O)N2CC3CCC(NC(=O)c4ccccc4Cl)C3C2)c1 (racemic)
- IC50 [1]: > 30 µM
- IC50 [6]: 0.115 µM

SMILES: Cn1cnc(S(=O)(=O)N2CC3CCC(NC(=O)c4ccc(F)cc4F)C3C2)c1 (racemic)
- IC50 [1]: > 30 µM

SMILES: Cn1cnc(S(=O)(=O)N2CC3CCC(NC(=O)c4ccccc4F)C3C2)c1 (racemic)
- IC50 [1]: > 30 µM

SMILES: Cn1cnc(S(=O)(=O)N2CC3CCC(NC(=O)c4cccc(F)c4)C3C2)c1 (racemic)
- IC50 [1]: > 30 µM
- IC50 [6]: > 10 µM

SMILES: Cn1cnc(S(=O)(=O)N2CC3CCC(NC(=O)c4ccc(F)cc4)C3C2)c1 (racemic)
- IC50 [1]: > 30 µM

SMILES: Cn1cnc(S(=O)(=O)N2CC3CCC(NC(=O)c4ccc(F)c(F)c4)C3C2)c1 (racemic)
- IC50 [1]: > 30 µM
- IC50 [6]: 1.57 µM

SMILES: Cn1cnc(S(=O)(=O)N2CC3CCC(NC(=O)c4ccc(Cl)cc4)C3C2)c1 (racemic)
- IC50 [1]: > 30 µM

SMILES: Cn1cnc(S(=O)(=O)N2CC3CCC(NC(=O)c4ccc(Cl)c(Cl)c4)C3C2)c1 (racemic)
- IC50 [1]: > 30 µM

SMILES: Cn1cnc(S(=O)(=O)N2CC3CCC(NC(=O)C4CCCCC4)C3C2)c1 (racemic)
- IC50 [1]: > 30 µM

SMILES: CCCS(=O)(=O)N1CC(C(NC(=O)c2ccc(Cl)cc2Cl)c2ccccc2)C1 (racemic)
- competitive inhibition (active/inactive) [4]: Active

SMILES: CCCS(=O)(=O)N1CCC(C(NC(=O)c2ccc(Cl)cc2Cl)c2ccccc2)CC1 (racemic)
- competitive inhibition (active/inactive) [4]: Active

SMILES: Cn1cnc(S(=O)(=O)N2CC(C(NC(=O)c3ccc(Cl)cc3Cl)c3ccccc3)C2)c1 (racemic)
- competitive inhibition (active/inactive) [4]: Active

SMILES: Cn1cnc(S(=O)(=O)N2CC(C(NC(=O)c3ccc(Cl)cc3Cl)c3cccs3)C2)c1 (racemic)
- competitive inhibition (active/inactive) [4]: Active

SMILES: Cn1cnc(S(=O)(=O)N2CCC(C(NC(=O)c3ccc(Cl)cc3Cl)c3ccccc3)CC2)c1 (racemic)
- competitive inhibition (active/inactive) [4]: Active

SMILES: Cn1cnc(S(=O)(=O)N2CCC(C(NC(=O)c3ccc(Cl)cc3Cl)c3ccccn3)CC2)c1 (racemic)
- competitive inhibition (active/inactive) [4]: Active

SMILES: Cn1cnc(S(=O)(=O)N2CCC(C(NC(=O)c3ccc(Cl)cc3Cl)c3cccs3)CC2)c1 (racemic)
- competitive inhibition (active/inactive) [4]: Active

Continued, values first:

- IC50 [1]: > 30 µM
SMILES: Cn1cnc(S(=O)(=O)N2CC3CCC(NC(=O)c4c(F)cccc4F)C3C2)c1 (racemic)

- IC50 [1]: > 30 µM
- IC50 [6]: > 10 µM
SMILES: CCS(=O)(=O)N1CC2CCC(NC(=O)c3ccc(Cl)cc3Cl)C2C1 (racemic)

- IC50 [1]: > 30 µM
- IC50 [6]: > 10 µM
SMILES: CCCS(=O)(=O)N1CC2CCC(NC(=O)c3ccc(Cl)cc3Cl)C2C1 (racemic)

- IC50 [1]: > 30 µM
- IC50 [6]: > 10 µM
SMILES: CCCCS(=O)(=O)N1CC2CCC(NC(=O)c3ccc(Cl)cc3Cl)C2C1 (racemic)

- IC50 [1]: > 30 µM
- IC50 [6]: > 10 µM
SMILES: O=C(NC1CCC2CN(S(=O)(=O)c3ccccc3)CC21)c1ccc(Cl)cc1Cl (racemic)

- IC50 [1]: > 30 µM
- IC50 [6]: > 10 µM
SMILES: O=C(NC1CCC2CN(S(=O)(=O)c3ccccn3)CC21)c1ccc(Cl)cc1Cl (racemic)

- IC50 [1]: > 30 µM
- IC50 [6]: > 10 µM
SMILES: O=C(NC1CCC2CN(S(=O)(=O)c3cccs3)CC21)c1ccc(Cl)cc1Cl (racemic)

- Fu [2]: 8.1%
- remaining at 1.5 h [3]: 30%
- IC50 [1]: > 30 µM
- IC50 [5]: > 10 µM
SMILES: Cn1cnc(S(=O)(=O)N2CC3CCC(NC(=O)c4ccc(Cl)cc4Cl)C3C2)c1 (racemic)
